Results: patent publication US20110311445A1, “DIAGNOSIS AND TREATMENT OF MYELOID AND LYMPHOID CELL CANCERS” (MORPHOTEK, INC., priority 2003, published 2011)

Columns and labels:
Raji cell line = assay: Cell proliferation / cytotoxicity, CCK-8, chlorotoxin (TM-601) with or without doxorubicin; assay type: cell-based; conditions: in combination with doxorubicin; FIG. 3
Protocol: (§1) A tissue culture method was optimized to test the effects of chlorotoxin (TM-601) in the presence or absence of doxorubicin on Raji (FIG. 3) and Daudi (FIG. 4) cell lines. Cells were plated on 96-well microtiter tissue culture plates at a density of approximately 1000-2000 cells per well, depending on the specific cell line. Cells were allowed to adhere twenty-four hours in a 37° C., humidified cell culture incubator supplied with five percent carbon dioxide. In order to achieve a dose-response curve for each drug in each cell line, cells were treated with decreasing concentrations doxorubicin for two to five days. Following treatment, the cytotoxic effect of doxorubicin was quantified using the Cell Counting Kit-8 (CCK-8) (Dojindo Inc.) according to the manufacturer's instructions. In brief, following the treatment period with doxorubicin, cells were incubated with CCK-8 reagent and incubated at 37° C. for one to four hours, depending on the specific cell type. After incubation, plates were read on a microplate reader at a wavelength of 490 nm.

Daudi cell line = assay: as above; assay type: cell-based; conditions: in combination with doxorubicin; FIG. 4
Protocol: as §1

[1] = test system: myeloid and lymphoid cancer cells; assay: Binding of chlorotoxin and binding-domain peptides to lymphoid cancer cells (FACS, streptavidin-fluorescein); conditions: general statement; FACS on Raji, Daudi, Molt-4 cells (FIG. 1, 2)
Protocol: Raji (Epstein et al. (1966) J. Natl. Cancer Inst. 37, 547-559) and Daudi (Klein et al. (1968) Cancer Res. 28 1300-1310) cells were used either unfixed or fixed with one percent glutaraldehyde. The Raji cell line (ATCC CCL-86) is a B lymphocyte cell line derived from a Burkitt's lymphoma of a person. The Daudi cell line (ATCC CCL-213) is a B lymphoblast cell line derived from person. Cells were incubated with chlorotoxin or the designated binding domain peptide (SEQ ID NO: 8 or 10), washed then incubated with streptavidin-fluorescein (strp-FL). After another wash, cells were analyzed using a FACS analyzer and the percent of positive staining cells determined (FIG. 1). Controls included untreated cells, cells incubated with streptavidin-fluorescein alone and cells incubated with negative peptide.
Molt-4 cells (Minowada et al. (1972) J. Natl. Cancer Inst. 49, 891-895) were used either unfixed or fixed with one percent glutaraldehyde. The Molt-4 cell line is a T lymphoblast cell line derived from a patient in relapse. Cells were incubated with chlorotoxin or the designated binding domain peptide (SEQ ID NO: 8 or 10), washed then incubated with streptavidin-fluorescein (strp-FL). After another wash, cells were analyzed using a FACS analyzer and the percent of positive staining cells determined (FIG. 2). […]

chlorotoxin
effect on Raji cell proliferation (Raji cell line): close-dependent synergistic effects | effect on Daudi cell proliferation (Daudi cell line): close-dependent synergistic effects | binding to myeloid and lymphoid cancer cells [1]: specifically and selectively bind
